Results from patent publication US11046728B2, “Neuroactive steroids, compositions, and uses thereof” (Sage Therapeutics, Inc., priority 2013, dated 2021).
pIC50: −log10 of the molar value.

How the values were obtained:
[1] = biological target: TBPS binding, rat brain cortical membranes in the presence of 5 μM GABA; assay: 35S-TBPS displacement (steroid inhibition of TBPS binding); details: read-out: 35S-TBPS Radioligand Displacement (IC50)
Description: TBPS binding assays using rat brain cortical membranes in the presence of 5 μM GABA has been described (Gee et al, J. Pharmacol. Exp. Then 1987, 241, 346-353; Hawkinson et al, Mol. Pharmacol. 1994, 46, 977-985). Briefly, cortices are rapidly removed following decapitation of carbon dioxide-anesthetized Sprague-Dawley rats (200-250 g). The cortices are homogenized in 10 volumes of ice-cold 0.32 M sucrose using a glass/teflon homogenizer and centrifuged at 1500×g for 10 min at 4° C. The resultant supernatants are centrifuged at 10,000×g for 20 min at 4° C. to obtain the P2 pellets. The P2 pellets are resuspended in 200 mM NaCl/50 mM Na—K phosphate pH 7.4 buffer and centrifuged at 10,000×g for 10 min at 4° C. This washing procedure is repeated twice and the pellets are resuspended in 10 volumes of buffer. Aliquots (100 μL) of the membrane suspensions are incubated with 3 nM [^35S]-TBPS and 5 μL, aliquots of test drug dissolved in dimethyl sulfoxide (DMSO) (final 0.5%) in the presence of 5 μM GABA. The incubation is brought to a final volume of 1.0 mL with buffer. Nonspecific binding is determined in the presence of 2 μM unlabeled TBPS and ranged from 15 to 25%. Following a 90 min incubation at room temp, the assays are terminated by filtration through glass fiber filters (Schleicher and Schuell No. 32) using a cell harvester (Braudel) and rinsed three times with ice-cold buffer. Filter bound radioactivity is measured by liquid scintillation spectrometry. Non-linear curve fitting of the overall data for each drug averaged for each concentration is done using Prism (GraphPad). […] The concentration of test compound producing 50% inhibition (IC50) of specific binding and the maximal extent of inhibition (Imax) are determined for the individual experiments with the same model used for the overall data and then the means±SEMs of the individual experiments are calculated.
Various compounds are or can be screened to determine their potential as modulators of ^35S-TBPS binding in vitro. These assays are or can be performed in accordance with the above discussed procedures.

male Sprague Dawley rats = assay: Loss of righting reflex in rats; type: in vivo, rat; details: intravenous bolus 5 mg/kg
Description: The plasma pharmacokinetics and a qualitative assessment of sedation were obtained in male Sprague Dawley rats according to the following procedure. Rats were dosed by intravenous bolus dose (60 seconds) via the foot dorsal vein at 5 mg/kg in an appropriate vehicle. In order to assess sedation, rats were gently restrained by hand to a lateral position for dose administration. […] If the animal was unable to return to an upright position, the time was recorded as the onset of loss of righting reflex (LRR). […] Sluggish or incomplete righting twice consecutively within a 30 second interval qualifies as a loss of righting reflex. After onset of LRR, animals were assessed every 5 minutes in the same manner. Recovery of righting reflex is defined as the ability of a rat to right itself completely within 20 seconds of being placed in dorsal recumbency. The duration of LRR is defined as the time interval between LRR and the return of righting reflex.

GABA receptor α1β2γ2 = biological target: T1, GABA receptor α1β2γ2 (Homo sapiens, UniProt P14867+P47870); assay: Patch clamp electrophysiology, Qpatch in Ltk cells; type: cell-based; details: 10 μM test article, GABA EC20 = 2 μM, read-out: GABA (α1β2γ2) Qpatch in Ltk, % efficacy at 10 μM
T1 construct: expressed in transfected cells; host or cells: LTK cells, stably transfected

GABA receptor α4β3δ = biological target: T2, GABA receptor α4β3δ (Homo sapiens, UniProt P28472+P48169); assay: Patch clamp electrophysiology, manual patch in CHO cells; type: cell-based; details: 10 μM test article, GABA EC20 = 2 μM, read-out: GABA (α4β3δ) Manual patch in CHO, % efficacy at 10 μM
T2 construct: expressed in transfected cells; host or cells: CHO cells, transiently transfected
T2 sequence (P48169 36-554): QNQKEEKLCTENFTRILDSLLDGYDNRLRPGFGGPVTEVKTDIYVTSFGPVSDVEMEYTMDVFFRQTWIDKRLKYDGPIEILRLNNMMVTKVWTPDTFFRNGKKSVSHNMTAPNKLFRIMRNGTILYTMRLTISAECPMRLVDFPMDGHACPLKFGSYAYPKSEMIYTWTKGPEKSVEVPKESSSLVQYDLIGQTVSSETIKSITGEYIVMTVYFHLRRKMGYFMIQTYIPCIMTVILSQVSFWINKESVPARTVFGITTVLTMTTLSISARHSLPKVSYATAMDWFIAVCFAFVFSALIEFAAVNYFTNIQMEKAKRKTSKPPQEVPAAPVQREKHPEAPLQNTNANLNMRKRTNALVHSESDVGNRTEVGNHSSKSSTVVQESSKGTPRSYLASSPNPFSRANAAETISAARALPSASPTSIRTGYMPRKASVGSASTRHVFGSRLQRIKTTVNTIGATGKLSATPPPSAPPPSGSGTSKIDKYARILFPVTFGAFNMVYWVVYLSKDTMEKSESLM
T2 sequence (P28472 26-473): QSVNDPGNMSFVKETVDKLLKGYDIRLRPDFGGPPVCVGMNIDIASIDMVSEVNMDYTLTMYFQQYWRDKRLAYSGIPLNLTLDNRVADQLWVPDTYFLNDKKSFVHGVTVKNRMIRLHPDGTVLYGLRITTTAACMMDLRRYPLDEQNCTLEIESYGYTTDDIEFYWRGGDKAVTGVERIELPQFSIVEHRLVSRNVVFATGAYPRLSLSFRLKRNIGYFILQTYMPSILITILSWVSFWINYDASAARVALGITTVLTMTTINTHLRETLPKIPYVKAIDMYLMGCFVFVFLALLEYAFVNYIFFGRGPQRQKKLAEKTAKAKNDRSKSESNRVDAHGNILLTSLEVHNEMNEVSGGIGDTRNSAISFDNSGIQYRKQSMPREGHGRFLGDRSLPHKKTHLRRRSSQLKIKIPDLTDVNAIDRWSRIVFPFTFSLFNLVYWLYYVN
T2 sequence (O14764 25-452 partner): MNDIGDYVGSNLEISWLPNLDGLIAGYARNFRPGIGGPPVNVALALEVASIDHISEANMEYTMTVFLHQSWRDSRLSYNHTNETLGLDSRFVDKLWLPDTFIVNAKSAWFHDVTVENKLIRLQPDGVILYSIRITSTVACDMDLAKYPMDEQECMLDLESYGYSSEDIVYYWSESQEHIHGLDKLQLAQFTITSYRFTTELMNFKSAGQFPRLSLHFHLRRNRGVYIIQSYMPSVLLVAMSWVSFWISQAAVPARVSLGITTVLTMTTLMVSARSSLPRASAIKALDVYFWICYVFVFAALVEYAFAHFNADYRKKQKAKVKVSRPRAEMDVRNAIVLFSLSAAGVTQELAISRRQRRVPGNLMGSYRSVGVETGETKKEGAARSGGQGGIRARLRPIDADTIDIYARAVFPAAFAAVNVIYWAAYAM

T1 sequence (P14867 28-456): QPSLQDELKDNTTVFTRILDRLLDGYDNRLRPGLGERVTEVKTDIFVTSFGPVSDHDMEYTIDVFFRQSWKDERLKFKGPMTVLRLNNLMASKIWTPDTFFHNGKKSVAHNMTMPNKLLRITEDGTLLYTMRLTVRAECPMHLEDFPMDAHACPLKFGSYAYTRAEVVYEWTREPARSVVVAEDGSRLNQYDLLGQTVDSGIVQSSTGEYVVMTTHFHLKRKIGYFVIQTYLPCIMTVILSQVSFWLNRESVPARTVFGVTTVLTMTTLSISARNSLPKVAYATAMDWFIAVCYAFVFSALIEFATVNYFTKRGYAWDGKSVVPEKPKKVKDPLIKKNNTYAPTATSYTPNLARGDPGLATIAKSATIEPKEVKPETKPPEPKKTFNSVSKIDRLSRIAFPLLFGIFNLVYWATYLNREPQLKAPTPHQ
T1 sequence (P47870 25-512 limits assumed): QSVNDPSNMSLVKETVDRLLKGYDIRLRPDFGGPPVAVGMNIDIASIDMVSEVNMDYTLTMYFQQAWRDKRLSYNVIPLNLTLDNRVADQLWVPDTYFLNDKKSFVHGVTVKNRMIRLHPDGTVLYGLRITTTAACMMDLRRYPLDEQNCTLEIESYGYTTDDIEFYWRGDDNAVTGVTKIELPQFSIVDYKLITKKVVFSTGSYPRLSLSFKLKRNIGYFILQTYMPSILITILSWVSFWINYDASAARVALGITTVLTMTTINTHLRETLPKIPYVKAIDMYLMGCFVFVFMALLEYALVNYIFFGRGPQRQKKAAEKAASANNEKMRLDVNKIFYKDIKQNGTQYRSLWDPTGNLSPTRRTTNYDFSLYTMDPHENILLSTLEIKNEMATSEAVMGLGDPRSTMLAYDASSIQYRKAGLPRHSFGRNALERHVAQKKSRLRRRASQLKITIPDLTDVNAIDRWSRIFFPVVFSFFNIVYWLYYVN
T1 sequence (P18507 40-475 partner): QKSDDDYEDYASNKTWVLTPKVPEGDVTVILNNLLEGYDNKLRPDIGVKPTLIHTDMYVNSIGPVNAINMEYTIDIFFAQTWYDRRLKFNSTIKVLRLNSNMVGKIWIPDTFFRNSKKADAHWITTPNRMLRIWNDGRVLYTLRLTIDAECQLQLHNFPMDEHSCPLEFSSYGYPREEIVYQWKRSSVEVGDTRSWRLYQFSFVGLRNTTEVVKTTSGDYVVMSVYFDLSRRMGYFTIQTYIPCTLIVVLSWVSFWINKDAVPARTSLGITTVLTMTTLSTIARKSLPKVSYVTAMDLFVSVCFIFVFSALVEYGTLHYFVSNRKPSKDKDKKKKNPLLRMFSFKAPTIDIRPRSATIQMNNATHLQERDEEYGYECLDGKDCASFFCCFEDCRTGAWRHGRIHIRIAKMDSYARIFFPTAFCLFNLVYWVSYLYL

C[C@]12C[C@@H](O)C3[C@@H](CC[C@H]4C[C@H](O)CC[C@]34C)[C@@H]1CC[C@@H]2C#N (stereo partly shown) [Compound 30]
pIC50 [1]: < 6.30

COCCO[C@H]1C[C@@]2(C)[C@@H](CC[C@@H]3[C@@H]2[C@@H](O)C[C@]2(C)[C@@H](C#N)CC[C@@H]32)C[C@@H]1O [Compound 24]
pIC50 [1]: < 6.30

CCO[C@H]1C[C@@]2(C)[C@@H](CC[C@@H]3[C@@H]2[C@@H](O)C[C@]2(C)[C@H](C#N)CC[C@@H]32)C[C@@H]1O [Compound 11]
pIC50 [1]: < 6.30

CCCO[C@H]1C[C@@]2(C)[C@@H](CC[C@H]3[C@@H]4CC[C@H](C#N)[C@@]4(C)CC(=O)[C@@H]32)C[C@@H]1O [Compound 21]
Duration of LRR (min) (male Sprague Dawley rats): C (“C” indicates the duration of LRR to be >20 minutes)
Emax at 10 µM (GABA receptor α1β2γ2): > 500%
pIC50 [1]: 7.30 to 8.00

C[C@H]1[C@H](O)CC[C@]2(C)[C@@H]3[C@@H](CC[C@@H]12)[C@@H]1CC[C@H](C#N)[C@@]1(C)C[C@@H]3O [Compound 56]
pIC50 [1]: < 6.30

CC(C)CO[C@H]1C[C@]2(C)C3CC[C@]4(C)[C@@H](C#N)CC[C@H]4[C@@H]3CC[C@H]2C[C@@H]1O (stereo partly shown) [Compound 29]
Duration of LRR (min) (male Sprague Dawley rats): C (“C” indicates the duration of LRR to be >20 minutes)
Emax at 10 µM (GABA receptor α1β2γ2): > 500%
pIC50 [1]: > 8.00

CO[C@H]1C[C@]2(C)[C@@H](C#N)CC[C@H]2[C@@H]2CC[C@H]3C[C@H](O)[C@@H](OC)C[C@]3(C)[C@H]21 [Compound 12]
Duration of LRR (min) (male Sprague Dawley rats): A (“A” indicates the duration of LRR to be <10 min)
Emax at 10 µM (GABA receptor α1β2γ2): > 500%
pIC50 [1]: 6.30 to 7.00

C[C@H]1[C@H](O)CC[C@@]2(C)[C@H]1CC[C@@H]1[C@@H]2CC[C@]2(C)[C@@H](C#N)CC[C@@H]12 [Compound 49]
pIC50 [1]: 6.30 to 7.00

CCCO[C@H]1C[C@@]2(C)[C@@H](CC[C@@H]3[C@@H]2[C@@H](O)C[C@]2(C)[C@@H](C#N)CC[C@@H]32)C[C@@H]1O [Compound 26]
Duration of LRR (min) (male Sprague Dawley rats): B (“B” indicates the duration of LRR to be 10-20 minutes)
pIC50 [1]: 6.30 to 7.00

CO[C@H]1C[C@]2(C)[C@@H](C#N)CC[C@H]2[C@@H]2CC[C@H]3C[C@H](O)[C@H](C)C[C@]3(C)[C@H]21 [Compound 45]
Duration of LRR (min) (male Sprague Dawley rats): C (“C” indicates the duration of LRR to be >20 minutes)
Emax at 10 µM (GABA receptor α1β2γ2): > 500%
pIC50 [1]: 7.00 to 7.30

C[C@H]1[C@H](O)CC[C@@]2(C)[C@H]1CC[C@H]1[C@@H]3CC[C@H](C#N)[C@@]3(C)CC(=O)[C@@H]12 [Compound 55]
pIC50 [1]: < 6.30

CCCO[C@H]1C[C@@]2(C)[C@@H](CC[C@@H]3[C@@H]2CC[C@]2(C)[C@H](C#N)CC[C@@H]32)C[C@@H]1O [Compound 18]
pIC50 [1]: < 6.30

COCCO[C@H]1C[C@@]2(C)[C@@H](CC[C@H]3[C@@H]4CC[C@H](C#N)[C@@]4(C)CC(=O)[C@@H]32)C[C@@H]1O [Compound 17]
Emax at 10 µM (GABA receptor α1β2γ2): 100 to 500%
pIC50 [1]: < 6.30

C[C@H]1C[C@@]2(C)[C@@H](CC[C@H]3[C@@H]4CC[C@H](C#N)[C@@]4(C)CC(=O)[C@@H]32)C[C@@H]1O [Compound 53]
pIC50 [1]: 6.30 to 7.00

CC(C)O[C@H]1C[C@@]2(C)[C@@H](CC[C@H]3[C@@H]4CC[C@H](C#N)[C@@]4(C)CC(=O)[C@@H]32)C[C@@H]1O [Compound 23]
Duration of LRR (min) (male Sprague Dawley rats): B (“B” indicates the duration of LRR to be 10-20 minutes)
pIC50 [1]: 6.30 to 7.00

CC(C)O[C@H]1C[C@@]2(C)[C@@H](CC[C@H]3[C@@H]4CC[C@H](C#N)[C@@]4(C)CC(=O)[C@@H]32)C[C@@H]1O [Compound 22]
Emax at 10 µM (GABA receptor α1β2γ2): 100 to 500%
pIC50 [1]: 7.00 to 7.30

CO[C@H]1C[C@]2(C)[C@@H](C#N)CC[C@H]2[C@@H]2CC[C@@H]3C[C@H](O)CC[C@]3(C)[C@H]21 [Compound 28]
Duration of LRR (min) (male Sprague Dawley rats): A (“A” indicates the duration of LRR to be <10 min)
Emax at 10 µM (GABA receptor α1β2γ2): > 500%
pIC50 [1]: 6.30 to 7.00

C[C@]12CC[C@@H](O)C[C@H]1CC[C@@H]1[C@@H]2[C@@H](O)C[C@]2(C)[C@H](C#N)CC[C@@H]12 [Compound 15]
pIC50 [1]: < 6.30

C[C@H]1C[C@@]2(C)[C@@H](CC[C@@H]3[C@@H]2CC[C@]2(C)[C@@H](C#N)CC[C@@H]32)C[C@@H]1O [Compound 40]
Duration of LRR (min) (male Sprague Dawley rats): B (“B” indicates the duration of LRR to be 10-20 minutes)
Emax at 10 µM (GABA receptor α1β2γ2): > 500%
pIC50 [1]: 7.30 to 8.00

C[C@]12CC[C@@H](O)C[C@H]1CC[C@@H]1[C@@H]2[C@@H](O)C[C@]2(C)[C@@H](C#N)CC[C@@H]12 [Compound 9]
Emax at 10 µM (GABA receptor α1β2γ2): 100 to 500%
pIC50 [1]: < 6.30
Emax at 10 µM (GABA receptor α4β3δ): 10 to 100%

C[C@H]1C[C@@]2(C)[C@@H](CC[C@@H]3[C@@H]2[C@@H](O)C[C@]2(C)[C@@H](C#N)CC[C@@H]32)C[C@@H]1O [Compound 54]
pIC50 [1]: 6.30 to 7.00

CCO[C@H]1C[C@@]2(C)[C@@H](CC[C@@H]3[C@@H]2[C@@H](O)C[C@]2(C)[C@@H](C#N)CC[C@@H]32)C[C@@H]1O [Compound 10]
Duration of LRR (min) (male Sprague Dawley rats): A (“A” indicates the duration of LRR to be <10 min)
Emax at 10 µM (GABA receptor α1β2γ2): > 500%
pIC50 [1]: < 6.30

C[C@@H]1C[C@@]2(C)[C@@H](CC[C@@H]3[C@@H]2CC[C@]2(C)[C@@H](C#N)CC[C@@H]32)C[C@@H]1O [Compound 33]
Duration of LRR (min) (male Sprague Dawley rats): A (“A” indicates the duration of LRR to be <10 min)
Emax at 10 µM (GABA receptor α1β2γ2): 100 to 500%
pIC50 [1]: 7.30 to 8.00

CO[C@@H]1C[C@@]2(C)[C@@H](CC[C@@H]3[C@@H]2CC[C@]2(C)[C@@H](C#N)CC[C@@H]32)C[C@@H]1O [Compound 44]
pIC50 [1]: < 6.30

CO[C@H]1C[C@]2(C)[C@H](C#N)CC[C@H]2[C@@H]2CC[C@H]3C[C@H](O)[C@H](C)C[C@]3(C)[C@H]21 [Compound 46]
Emax at 10 µM (GABA receptor α1β2γ2): 10 to 100%
pIC50 [1]: 6.30 to 7.00

CO[C@@H]1C[C@]2(C)[C@@H](C#N)CC[C@H]2[C@@H]2CC[C@H]3C[C@H](O)CC[C@]3(C)C21 (stereo partly shown) [Compound 34]
pIC50 [1]: 6.30 to 7.00

C[C@]12C[C@H](OC3CC3)[C@@H](O)C[C@@H]1CC[C@@H]1[C@@H]2CC[C@]2(C)[C@H](C#N)CC[C@@H]12 [Compound 57]
pIC50 [1]: < 6.30

C[C@]12C[C@H](OC(F)(F)F)[C@@H](O)C[C@@H]1CC[C@@H]1[C@@H]2CC[C@]2(C)[C@@H](C#N)CC[C@@H]12 [Compound 43]
pIC50 [1]: < 6.30

CO[C@H]1C[C@]2(C)[C@H](C#N)CC[C@H]2[C@@H]2CC[C@H]3C[C@H](O)[C@@H](OC)C[C@]3(C)[C@H]21 [Compound 13]
pIC50 [1]: < 6.30

C[C@]12CC[C@@H](O)C[C@@H]1CC[C@@H]1[C@@H]2[C@@H](O)C[C@]2(C)[C@@H](C#N)CC[C@@H]12 [Compound 27]
pIC50 [1]: < 6.30

C[C@]12C[C@H](OCCO)[C@@H](O)C[C@@H]1CC[C@@H]1[C@@H]2CC[C@]2(C)[C@@H](C#N)CC[C@@H]12 [Compound 7]
pIC50 [1]: < 6.30

CO[C@H]1C[C@]2(C)[C@@H](C#N)CC[C@H]2[C@@H]2CC[C@H]3C[C@H](O)[C@@H](C)C[C@]3(C)[C@H]21 [Compound 51]
Duration of LRR (min) (male Sprague Dawley rats): C (“C” indicates the duration of LRR to be >20 minutes)
Emax at 10 µM (GABA receptor α1β2γ2): > 500%
pIC50 [1]: 7.30 to 8.00

CC[C@H]1C[C@@]2(C)[C@@H](CC[C@@H]3[C@@H]2CC[C@]2(C)[C@@H](C#N)CC[C@@H]32)C[C@@H]1O [Compound 41]
Duration of LRR (min) (male Sprague Dawley rats): C (“C” indicates the duration of LRR to be >20 minutes)
Emax at 10 µM (GABA receptor α1β2γ2): > 500%
pIC50 [1]: > 8.00

CCO[C@H]1C[C@@]2(C)[C@@H](CC[C@H]3[C@@H]4CC[C@@H](C#N)[C@@]4(C)CC(=O)[C@@H]32)C[C@@H]1O [Compound 20]
pIC50 [1]: < 6.30

C[C@]12C[C@H](OC3CC3)[C@@H](O)C[C@@H]1CC[C@@H]1[C@@H]2CC[C@]2(C)[C@@H](C#N)CC[C@@H]12 [Compound 42]
pIC50 [1]: < 6.30

CO[C@H]1C[C@]2(C)[C@@H](C#N)CC[C@H]2[C@@H]2CC[C@H]3[C@@H](C)[C@H](O)CC[C@]3(C)[C@H]21 [Compound 52]
pIC50 [1]: < 6.30

CC[C@H]1[C@H](O)CC[C@]2(C)[C@H]3CC[C@]4(C)[C@@H](C#N)CC[C@H]4[C@@H]3CC[C@@H]12 [Compound 50]
pIC50 [1]: < 6.30
